According to patent US20070148765A1, “Preservative-containing virus formulations” (priority 2003, published 2007):
Entries after “also recorded” stand apart in the source; their conditions may differ.

Assays:
[1] = test system: S. aureus, P. aeruginosa, E. coli, C. albicans, A. niger; assay: Antimicrobial effectiveness (AME) testing, overall result; settings: formulated in A195 buffer
adenovirus = assay: QPA assay for adenovirus infectivity (stability of adenovirus in formulation); assay type: cell-based, adenovirus serotype 5 (Ad5); settings: for Ad5 stability in the presence of preservative: in A195 buffer with the preservative, short-term accelerated stability, infectivity assays
Procedure: QPA Assay for Adenovirus Infectivity—The compatibility of preservatives with adenovirus was assessed by measuring the infectivity adenovirus using QPA assay. The QPA assay is based on the finding that the quantity of replicating adenoviral genomes, upon infection of 293 cells, is proportional to the input quantity of infectious adenovirus 24 hours post-infection (P.I.). The accumulated adenoviral genomes are purified using Qiagen 96-well Blood DNA Extraction Kit 24 hrs P.I. and quantitated using Perkin-Elmer TaqMan PCR technology. A standard curve is constructed by using the TaqMan PCR cycle threshold (CT) reflecting the quantity of accumulated adenoviral genomes due to infection and subsequent replication as a function of the input viral infectivity of standard curve material that is determined by independent TCID50 potency assay. The infectivity of samples is interpolated from the standard curve. Infectivity can be determined within 48-72 hours using this procedure. To determine the loss of adenovirus infectivity in stability samples the infectivity of the stability sample and the corresponding −70° C. control of the same formulation are determined during the same QPA run and on the same PCR plate. The loss of infectivity in the stability samples is expressed as log loss of infectivity compared to the −70° C. control.
Results—Adenovirus was formulated in A195 buffer containing preservatives (i.e., the A500 series of Table 3). The infectivity of adenovirus was measured using a Q-PCR based Potency Assay (QPA) after storage at certain temperatures (2-8, 15, 20, 25, 30, and 37° C.) and compared to the control (corresponding sample stored at −70° C.). The stability of adenovirus was quantitatively presented as “Log Loss of Adenovirus Infectivity”. Variability of the QPA assay is reported to be +/−0.15 logs.

[2] = Solubility of preservative in A195 buffer; assay type: physicochemical

With `CC(C)(C)CC(C)(C)c1ccc(OCCOCC[N+](C)(C)Cc2ccccc2)cc1` [benzethonium chloride] the “AME testing, overall result in words” value [1] was “effective antimicrobial preservatives”.
In the case of `Oc1ccccc1` [phenol], the “Ad5 stability in the presence of preservative” value (shortened to “Ad5 stability in the presence”) (adenovirus) is reported as “very unstable” and the “AME testing, overall result in words” value [1] is reported as “effective antimicrobial preservatives”.
In the case of `OCc1ccccc1` [benzyl alcohol], the “Ad5 stability in the presence” value (adenovirus) is reported as “very poor stability” and the “AME testing, overall result in words” value [1] is reported as “effective antimicrobial preservatives”.
In the case of `Cc1cccc(O)c1` [m-cresol], the “solubility in A195 buffer” value [2] is reported as “poor solubility” and the “AME testing, overall result in words” value [1] is reported as “effective antimicrobial preservatives”.
In the case of `O=C(O)c1ccccc1` [benzoic acid], the “effects on the stability of adenovirus (log loss of infectivity, FIG. 1)” value (adenovirus; 0.5% (w/v) chlorobutanol or 0.2% (w/v) benzoic acid in A195 pH 6.8, MRKAd5pol 10^10 VP/ml, 37° C. 1-4 weeks vs −70° C.) is reported as “no significant effects”, the “Ad5 stability in the presence” value (adenovirus) is reported as “compatible with adenovirus; also recorded: compatible with Ad5” and the “AME testing, overall result in words” value [1] is reported as “failed AME testing”.
